Reference: US9655882B2, “Compositions and methods for treatment of neurodegenerative disease” (THE JOHNS HOPKINS UNIVERSITY, priority 2008, dated 2017)
Where two headings read alike, the source gives them in different places.

Assays:
[1] = test system: Mouse retinal ganglion cells (RGCs); assay: Live-dead assay of cultured mouse RGCs (Cellomics VTI HCS reader), live cell count; settings: approximately 2 days culture, various concentrations, FIG. 4
mouse RGCs [2] = assay: RGC survival in purified primary mouse RGC culture (high-content screening, Calcein AM/Hoechst/Ethidium Homodimer-1); assay type: cell-based
Protocol: Purified mouse RGCs were grown in Neurobasal, 2% B27, 1% N2 supplement, 0.5 mM glutamine. […] Increasing concentrations of kinase inhibitors were present in the media as indicated. Viability and neurite growth of RGCs were assayed by a combined staining with Calcein AM, Hoechst, and Ethidium Homodimer-1. The images were taken and processed by Cellomics Kineticscan.
RGC survival and neurite growth were quantitatively measured as average surviving RGCs/field (4 mm^2) (FIG. 2C), total neurite length per RGC (FIG. 2D), average neurite length per RGC (FIG. 2E), and total neurite count per RGC (FIG. 2F).

mouse RGCs [3] = assay: RGC neurite growth in purified primary mouse RGC culture (high-content screening); assay type: cell-based; settings: Example 4, at 100 nM
Protocol: Purified mouse RGCs were grown in Neurobasal, 2% B27, 1% N2 supplement, 0.5 mM glutamine. 2 μM forskolin was present in all the conditions except vehicle control with DMSO (dark bar), for 60 hours. Increasing concentrations of kinase inhibitors were present in the media as indicated. Viability and neurite growth of RGCs were assayed by a combined staining with Calcein AM, Hoechst, and Ethidium Homodimer-1. The images were taken and processed by Cellomics Kineticscan. […] Error bars: S.E.M.
RGC survival and neurite growth were quantitatively measured as average surviving RGCs/field (4 mm^2) (FIG. 2C), total neurite length per RGC (FIG. 2D), average neurite length per RGC (FIG. 2E), and total neurite count per RGC (FIG. 2F). Error bars: S.E.M.
To enhance the assay sensitivity, the culture condition is defined to support a baseline level of RGC viability (20˜60% surviving RGCs after three days in culture) and neurite growth by 2.5 μM forskolin.

mouse RGCs [4] = assay type: in vivo; settings: for RGC loss / RGC survival after optic nerve injury: intravitreal injection of 1 μl (2 mM) every three days for nine days
Excerpt: . Mouse optic nerve crush is a well-established animal model in mimicking the pathological conditions in which the primary injury sites are focal to RGC axons such as in glaucoma, AION, traumatic optic neuropathy, and multiple sclerosis. Specific RGC loss following nerve crush, which largely spares displaced amacrine cells in GCL, is thought to result from incomplete understood mechanism that implicates the blockage of retrograde axonal transport and subsequently impaired neurotrophin signaling, and excitotoxicity etc. In addition, mouse optic nerve crush has been successfully employed as an experimental system to identify the genetic nature controlling RGC susceptibility to axon injury.
During the procedure, the optic nerve was carefully exposed through a post-orbital approach, and crushed with a self-closing forceps for three seconds. […] Since RGCs populate ˜60% cells in rodent GCL, the estimated surviving RGC is ˜57.3%. […]. […]

mouse RGCs [5] = assay: Excitotoxicity (glutamate, KA, NMDA, AMPA) in purified mouse RGCs in vitro; assay type: cell-based; settings: 1 μM sunitinib
Protocol: Neuronal toxicity of excitatory amino acid glutamate and its analogue NMDA is implicated in a number of neurodegenerative conditions that involve RGC, such as glaucoma, optic neuropathies of trauma and other origins, and that affect other CNS structures, such as Alzheimer's disease, Parkinson's disease, Huntington's disease, stroke, and […] (ALS). […] RGC viability was measured and the percentage of RGC loss due to the excitotoxicity was calculated.

activated Caspase-3 = assay: Activated Caspase-3 positive (apoptotic) cells in GCL after mouse optic nerve crush; assay type: in vivo; settings: three days following nerve crush, systemic treatment
Excerpt: Apoptosis has been identified as the major form of RGC death in many, if not all, degenerative conditions targeting their axons, and in mouse optic nerve.

RGC = RGC survival under Flt3 ligand with or without sunitinib; assay type: cell-based
FLT3 = molecular target: T1, FLT3 (Homo sapiens, UniProt P36888); settings: cited from earlier work
T1 sequence (P36888 27-993): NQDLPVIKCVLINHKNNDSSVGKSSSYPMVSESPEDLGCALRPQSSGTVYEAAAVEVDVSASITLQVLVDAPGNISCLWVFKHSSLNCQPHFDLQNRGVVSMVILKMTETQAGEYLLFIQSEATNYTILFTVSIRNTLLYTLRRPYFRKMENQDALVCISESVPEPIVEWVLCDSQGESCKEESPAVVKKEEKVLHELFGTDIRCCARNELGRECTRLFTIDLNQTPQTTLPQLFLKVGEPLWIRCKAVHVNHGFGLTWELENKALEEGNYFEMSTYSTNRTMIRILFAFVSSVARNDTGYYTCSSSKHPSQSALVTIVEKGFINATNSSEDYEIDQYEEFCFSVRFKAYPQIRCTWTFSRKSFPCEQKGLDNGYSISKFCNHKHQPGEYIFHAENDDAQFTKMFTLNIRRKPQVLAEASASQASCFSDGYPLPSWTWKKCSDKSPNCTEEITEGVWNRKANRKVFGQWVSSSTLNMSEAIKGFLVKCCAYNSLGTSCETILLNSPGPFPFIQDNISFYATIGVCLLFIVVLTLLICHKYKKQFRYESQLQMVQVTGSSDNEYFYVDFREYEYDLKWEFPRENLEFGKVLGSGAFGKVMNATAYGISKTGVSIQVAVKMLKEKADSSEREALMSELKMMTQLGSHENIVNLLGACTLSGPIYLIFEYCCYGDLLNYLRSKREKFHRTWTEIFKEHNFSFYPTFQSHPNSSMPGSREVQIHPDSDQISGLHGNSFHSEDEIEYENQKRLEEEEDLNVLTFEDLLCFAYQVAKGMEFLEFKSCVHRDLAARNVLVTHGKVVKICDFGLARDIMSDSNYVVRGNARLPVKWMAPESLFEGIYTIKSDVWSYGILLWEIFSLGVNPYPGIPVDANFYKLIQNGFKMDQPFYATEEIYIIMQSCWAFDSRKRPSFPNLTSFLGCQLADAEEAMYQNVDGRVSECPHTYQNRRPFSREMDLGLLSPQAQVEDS

CN(C)S(=O)(=O)c1ccc2c(c1)/C(=C/c1cc3c([nH]1)CCCC3)C(=O)N2 [SU6656, (3Z)—N,N-dimethyl-2-oxo-3-(4,5,6,7-tetrahydro-1H-indol-2-ylmethylidene)-1H-indole-5-sulfonamide]
RGC survival (live cell count) [1]: significantly increased RGC survival

CNC(=O)c1cc(Oc2ccc(NC(=O)Nc3ccc(Cl)c(C(F)(F)F)c3)cc2)ccn1 [Sorafenib]
pro-surviving activity on RGCs (mouse RGCs [2]; Example 4, clinical protein kinase inhibitors, purified primary mouse RGC culture): lacking strong protective activity to RGC
RGC neurite growth (mouse RGCs [3]): stimulate neurite growth as potently as sunitinib (1 μM)

O=C(NC1CCOCC1)c1ccc(-c2cc(-c3c[nH]nc3-c3ccccn3)ccn2)cc1 [TGF-beta receptor inhibitor]
RGC loss / RGC survival after optic nerve injury (mouse RGCs [4]): capable of reducing RGC loss
RGC loss / RGC survival after optic nerve injury (mouse RGCs [4]; listed as drawing 10): increased RGC survival

CCN(CC)CCNC(=O)c1c(C)[nH]c(/C=C2\C(=O)Nc3ccc(F)cc32)c1C [sunitinib, N-[2-(diethylamino)ethyl]-5-[(Z)-(5-fluoro-1,2-dihydro-2-oxo-3H-indol-3-ylidine)methyl]-2,4-dimethyl-1H-pyrrole-3-carboxamide]
toxicity to RGC in vitro (mouse RGCs [2]; concentrations higher than 1 μM): higher concentrations exhibit toxicity
reduction of RGC loss caused by AMPA (mouse RGCs [5]; 100 μM AMPA): 4 folds
reduction of RGC loss caused by NMDA (mouse RGCs [5]; 100 μM NMDA): ~10 folds
projected surviving RGCs (mouse RGCs [4]; mouse, in vivo): 79.2%
appearance of retina (mouse RGCs [4]; mouse, in vivo, 15 mg/kg/day): obvious yellow appearance
cells in GCL survived (mouse RGCs [4]; systemic administration of 5 mg/kg/day for ten days after optic nerve crush): ~88.5%
reduction of number of apoptotic cells in GCL (activated Caspase-3): 38.9%
antagonism of detrimental effects of Flt31 on RGC (RGC; Flt31 at 16 ng/ml, sunitinib present in the media): 1.4 fold

B1: Flt31: Flt3 ligand, RTK ligand (protein, UniProt P49771 27-235, looked up)
Fms-related tyrosine kinase 3 …: TQDCSFQHSPISSDFAVKIRELSDYLLQDYPVTVASNLQDEELCGGLWRLVLAQRWMERLKTVAGSKMQGLLERVNTEIHFVTKCAFQPPPSCLRFVQTNISRLLQETSEQLVALKPWITRQNFSRCLELQCQPDSSTLPPPWSPRPLEATAPTAPQPPLLLLLLLPVGLLLLAAAWCLHWQRTRRRTPRPGEQVPPVPSPQDLLLVEH
effect on RGC survival (RGC; Flt31 at 4 ng/ml): did not appear to affect RGC survival
compromise of the pro-surviving activity of sunitinib (RGC; Flt31 at 4 ng/ml with sunitinib): 36.6%
reduction of RGC survival (RGC; Flt31 at 16 ng/ml): 38.3%
EC50 (FLT3): 4 ng/mL
